How the values were obtained:
[1] = Aqueous hydrolysis stability assay, Method 1; format: physicochemical; details: 45 min; Method 1: 50 mM HEPES pH 7.5 or 1:1 acetonitrile:water, room temperature
Method: Determination of aqueous stability of the test compounds was performed using HPLC-MS or UPLC-MS. A test compound 10 mM stock solution was prepared in DMSO. Half-life (T1/2) of the parent conjugate is calculated using the peak area of the parent conjugate at each time point in the linear region of the log-linear plot.
10 μL of the DMSO stock solution was dissolved in 990 μL of 50 mM HEPES pH 7.5 buffer or 1:1 (v/v) of acetonitrile:water to make a 100 μM solution. Final DMSO concentration was 1%. The solution was kept at room temperature and injected without delay into the LCMS (Waters Xevo TQ-S or Micromass Ultima). Additional injections were performed at appropriate time points.

[2] = Rabbit Cornea Homogenate stability (esterase) assay, Method 1; format: in vitro ADME; details: for Esterase % Lifitegrast formation at 45 min: 37° C., Method 1 (50 mM HEPES pH 7.5); for Esterase % keratolytic agent formation at 45 min / API Formation rate (%/min): Method 1
Method: Determining Rabbit Cornea Homogenate stability of the test compounds was performed using HPLC-MS or UPLC-MS. The assay was performed at two concentrations of Rabbit Cornea Homogenate (0.15 mg/mL and 0.45 mg/mL total protein) so that any hydrolysis observed can be assigned as esterase dependent or not.
Three to five rabbit corneas (e.g. New Zealand Whites (NZW) or Dutch Belted (DB)) of approx. 50 mg each were sliced and scraped with a scalpel and tweezers until reduced to small (1-3 mm), thin pieces. These were transferred into a glass vial containing approximately 2 mL of cold DPBS pH 7.4 buffer.
Sample was cooled intermittently on ice and shear homogenized for 3 minutes, then centrifuged for 3 min at 13,000 g. The supernatant was pipetted off into a vial, and total protein concentration determined at 280 nm. Sample was stored at −78° C.
10 mM Compound stocks were diluted to 100 μM in a 96 deep-well plate: 10 μL of 10 mM Compound stock was added to 990 μL 50 mM HEPES, pH 7.5 buffer. Compounds were further diluted to 10 μM: 100 μL of 100 μM compound was added to 900 μL 50 mM HEPES, pH 7.5 buffer. Esterase homogenate was diluted to 300 ng/μL and 900 ng/μL.
A heater shaker was set to 37° C. Into a suitable 96 well plate (Run Plate), 75 μL of 300 or 900 ng/μL esterase homogenate was pipetted into each of the required wells (2 min, 5 min, 10 min, 20 min and 45 min). The plate was sealed and then warmed at 37° C. for 5 min.
Another 96 well PCR plate was put on ice (Kill Plate). To this was added 100 μL of MeCN to each well, labelled 0 min 2 min, 5 min, 10 min, 20 min and 45 min. The plate was covered to minimize evaporation.
For the T=0 sample only, to the 100 μL cold MeCN stop solution was added 50 μL of 300 or 900 ng/μL esterase homogenate followed by 50 μL of 10 μM compound solution. For the remaining timepoints, 75 μL of 10 μM compound solution was added to the Run Plate starting from T=45 min row and ending with T=2 min row. At the appropriate time point, 100 μL of the assay mixture was added to the matching kill plate well containing 100 μL of cold MeCN. Samples were analyzed as soon as practicable by LCMS (Waters Xevo TQ-S or Micromass Ultima).
Parent conjugate and parent concentrations were determined against appropriate standard response curves and the half-life (T½) of the parent conjugate was calculated using the peak area of the parent conjugate at each time point in the linear region of the log-linear plot.

[3] = Cornea Homogenate Conc 0.15 mg/mL
[4] = Cornea Homogenate Conc 0.45 mg/mL

CC(=O)N[C@@H](CS)C(=O)OC(C)OC(=O)[C@H](Cc1cccc(S(C)(=O)=O)c1)NC(=O)c1c(Cl)cc2c(c1Cl)CCN(C(=O)c1ccc3ccoc3c1)C2 (stereo partly shown) [Compound 5]
Hydrolytic % Lifitegrast formation at [time] [1]: C [45 min] (percent API formation >4%)
Esterase % Lifitegrast formation at 45 min [2, 3]: A (percent active pharmaceutical ingredient (API) formation <25%)
Esterase % keratolytic agent formation at 45 min [2, 3]: A (percent active pharmaceutical ingredient (API) formation <25%)
API Formation rate (%/min) [2, 3]: a (API formation rate <0.5%/min)
Esterase % Lifitegrast formation at 45 min [2, 4]: A (percent active pharmaceutical ingredient (API) formation <25%)
Esterase % keratolytic agent formation at 45 min [2, 4]: A (percent active pharmaceutical ingredient (API) formation <25%)
API Formation rate (%/min) [2, 4]: a (API formation rate <0.5%/min)
